A word on the IC50: it is the concentration at which inhibition is half-maximal.

Where two headings read alike, the source gives them in different places.

The assay deals with LRRK2 (leucine-rich repeat kinase 2) (Homo sapiens (Human), UniProt Q5S007). The experiment in a line: Inhibitory effect on LRRK2 in vitro (LANCE kinase assay). In kind it is biochemical. The protocol:
The inhibitory effect of Compounds 1 to 62 on LRRK2 (leucine-rich repeat kinase 2) in vitro was measured. In the analysis of the results, IC50 values were calculated for a quantitative comparison of the in vitro activity.
After the compound was dissolved in 100% DMSO at 10 mM, it was serially diluted to the range of 1 μM to 10 μM using biochemical LRRK2 assay buffer (50 mM HEPES (4-(2-hydroxyethyl)-1-piperazineethanesulfonic acid) pH 7.5, 10 mM MgCl2, 1 mM EGTA (1,2-bis(o-aminophenoxy)ethane-N,N,N′,N′-tetraacetic acid), 2 mM DTT (dithiothreitol), and 0.01% TWEEN-20 (Aldrich)). Purified LRRK2 (CARNA BIOSCIENCES) was added to a black U-bottom 96-well microtiter plate containing 6 μl of the serially diluted compound, followed by incubation at room temperature for 30 minutes. For the kinase reaction, ATP and a substrate solution specific urea-polypeptide (ULIGHT™-poly TK, PerkinElimer) were added. The reaction was carried out at room temperature for 1 hour, and it was detected with an detection solution (brand name: LANCE™) containing EDTA. A LANCE detection solution containing europium-labeled antibody ([…] PT66) was added, followed by incubation at room temperature for 50 minutes, to terminate the kinase experiment. The phosphorylated substrate was detected by 665 nm emission measurement. IC50 values were calculated by a non-linear regression analysis using a Prism program (PRISM™ software) with reference to the absence of a kinase inhibitor.
As a comparative assay, a compound LRR2-IN-1, that known to be a reference compound for LRRK2 inhibitor, have also tested an inhibitory activity.
For orientation: TR-FRET usually uses a lanthanide donor and a delayed reading to cut background.

[1] abbreviates: Table 1, class symbols, read-out: LRRK2 inhibition rate (IC50).
The mark [2] stands for this setting: purified LRRK2, Table 6, read-out: IC50.

LRRK2 (leucine-rich repeat kinase 2), sequence (Q5S007 whole entry): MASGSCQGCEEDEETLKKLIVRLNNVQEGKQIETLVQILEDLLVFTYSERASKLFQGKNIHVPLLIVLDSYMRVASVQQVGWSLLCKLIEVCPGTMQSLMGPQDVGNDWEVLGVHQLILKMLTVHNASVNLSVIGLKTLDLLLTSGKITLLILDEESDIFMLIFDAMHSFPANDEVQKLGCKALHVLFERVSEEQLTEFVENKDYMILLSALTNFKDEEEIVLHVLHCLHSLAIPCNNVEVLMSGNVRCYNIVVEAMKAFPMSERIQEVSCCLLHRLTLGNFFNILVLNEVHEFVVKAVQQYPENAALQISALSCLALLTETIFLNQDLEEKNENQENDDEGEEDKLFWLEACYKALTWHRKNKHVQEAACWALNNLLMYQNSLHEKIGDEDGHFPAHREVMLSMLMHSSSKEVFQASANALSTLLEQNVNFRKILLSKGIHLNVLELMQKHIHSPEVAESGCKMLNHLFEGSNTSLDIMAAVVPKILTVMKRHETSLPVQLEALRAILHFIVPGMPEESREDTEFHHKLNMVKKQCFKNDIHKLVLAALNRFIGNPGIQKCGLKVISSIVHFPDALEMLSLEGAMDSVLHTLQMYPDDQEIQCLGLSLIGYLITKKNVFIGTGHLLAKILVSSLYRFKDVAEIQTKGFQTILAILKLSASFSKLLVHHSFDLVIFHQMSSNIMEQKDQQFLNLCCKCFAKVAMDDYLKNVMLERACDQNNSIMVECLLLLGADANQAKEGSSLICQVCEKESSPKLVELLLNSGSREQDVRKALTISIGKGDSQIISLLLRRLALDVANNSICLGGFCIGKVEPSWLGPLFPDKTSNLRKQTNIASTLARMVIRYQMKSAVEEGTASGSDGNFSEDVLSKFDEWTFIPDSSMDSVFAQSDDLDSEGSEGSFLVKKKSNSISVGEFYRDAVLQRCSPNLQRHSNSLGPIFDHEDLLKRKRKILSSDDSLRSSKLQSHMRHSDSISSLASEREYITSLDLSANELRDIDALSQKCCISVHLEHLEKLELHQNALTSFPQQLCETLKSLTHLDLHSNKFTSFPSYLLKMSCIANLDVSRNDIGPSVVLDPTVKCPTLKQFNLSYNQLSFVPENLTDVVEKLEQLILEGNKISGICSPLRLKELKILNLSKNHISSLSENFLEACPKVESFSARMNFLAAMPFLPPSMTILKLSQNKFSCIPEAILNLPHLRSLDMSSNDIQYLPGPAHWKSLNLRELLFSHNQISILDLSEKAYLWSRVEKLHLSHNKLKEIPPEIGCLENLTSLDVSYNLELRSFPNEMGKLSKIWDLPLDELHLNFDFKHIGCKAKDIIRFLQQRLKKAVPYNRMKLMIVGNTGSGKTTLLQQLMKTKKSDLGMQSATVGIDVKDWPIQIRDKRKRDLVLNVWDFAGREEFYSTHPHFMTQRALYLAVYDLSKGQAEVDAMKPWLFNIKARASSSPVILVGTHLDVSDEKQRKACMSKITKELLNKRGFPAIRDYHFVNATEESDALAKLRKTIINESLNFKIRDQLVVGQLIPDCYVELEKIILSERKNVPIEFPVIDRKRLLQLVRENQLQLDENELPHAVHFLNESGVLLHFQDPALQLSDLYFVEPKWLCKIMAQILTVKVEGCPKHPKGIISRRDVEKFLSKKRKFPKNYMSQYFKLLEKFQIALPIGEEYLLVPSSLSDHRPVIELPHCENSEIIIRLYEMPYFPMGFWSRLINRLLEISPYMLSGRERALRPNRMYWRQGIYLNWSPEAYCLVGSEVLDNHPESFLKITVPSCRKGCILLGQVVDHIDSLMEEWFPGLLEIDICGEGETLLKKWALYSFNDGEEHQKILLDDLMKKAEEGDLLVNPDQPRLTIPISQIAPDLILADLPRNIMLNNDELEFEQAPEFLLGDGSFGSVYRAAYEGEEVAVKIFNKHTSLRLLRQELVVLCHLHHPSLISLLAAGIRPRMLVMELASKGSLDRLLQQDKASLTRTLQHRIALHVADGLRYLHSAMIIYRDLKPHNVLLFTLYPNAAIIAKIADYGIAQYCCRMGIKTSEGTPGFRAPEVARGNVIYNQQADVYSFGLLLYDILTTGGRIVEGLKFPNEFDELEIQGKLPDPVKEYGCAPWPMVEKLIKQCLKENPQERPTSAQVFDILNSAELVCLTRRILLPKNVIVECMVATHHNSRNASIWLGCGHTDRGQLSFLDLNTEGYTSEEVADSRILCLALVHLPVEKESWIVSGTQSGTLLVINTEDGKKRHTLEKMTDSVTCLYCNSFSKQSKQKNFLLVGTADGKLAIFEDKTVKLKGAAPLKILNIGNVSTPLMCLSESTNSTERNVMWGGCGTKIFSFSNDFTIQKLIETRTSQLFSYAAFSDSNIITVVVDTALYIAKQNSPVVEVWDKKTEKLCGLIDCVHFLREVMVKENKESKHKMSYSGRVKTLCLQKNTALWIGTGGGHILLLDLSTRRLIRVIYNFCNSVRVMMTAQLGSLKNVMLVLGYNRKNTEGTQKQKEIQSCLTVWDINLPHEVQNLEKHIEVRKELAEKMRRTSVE

In the case of `CCn1cc(Cl)c2cnc(Nc3cnn(C)c3Cl)nc21` [Compound 6, 5-chloro-N-(5-chloro-1-methyl-1H-pyrazol-4-yl)-7-ethyl-7H-pyrrolo[2,3-d]pyrimidin-2-amine], the IC50 under setting [1] was 10 to 100 nM.

Consider `COc1cc(C(=O)N2CCC(N3CCN(C)CC3)CC2)ccc1Nc1ncc2c(n1)N(C)c1ccccc1C(=O)N2C` [LRRK2-IN-1, reference compound], for which the IC50 under setting [2] is 8.2 nM.

For `CCn1cc(Cl)c2cnc(Nc3cn(C(C)C)nc3Cl)nc21` [Compound 8, 5-chloro-N-(3-chloro-1-isopropyl-1H-pyrazol-4-yl)-7-ethyl-7H-pyrrolo[2,3-d]pyrimidin-2-amine], the IC50 under setting [1] fell in the range of 10 to 100 nM.

For the molecule `CCn1nc(Cl)c2cnc(Nc3cn(C4CCN(C(=O)N5CCOCC5)CC4)nc3Cl)nc21` [Compound 54, (4-(3-chloro-4-(3-chloro-1-ethyl-1H-pyrazolo[3,4-d]pyrimidin-6-ylamino)-1H-pyrazol-1-yl)piperidin-1-yl)(morpholino)methanone], under setting [1], the IC50 is less than 10 nM.

Regarding `CCn1nc(Cl)c2cnc(Nc3cn(C4CCN(S(=O)(=O)C5CC5)CC4)nc3Cl)nc21` [Compound 47, 3-chloro-N-(3-chloro-1-(1-(cyclopropylsulfonyl)piperidin-4-yl)-1H-pyrazol-4-yl)-1-ethyl-1H-pyrazolo[3,4-d]pyrimidin-6-amine], the IC50 under setting [1] is less than 10 nM and the IC50 under setting [2] was 6.48 nM.

On to `CCn1cc(Cl)c2cnc(Nc3cn(-c4ccc(F)cc4)nc3Cl)nc21` [Compound 21, 5-chloro-N-(3-chloro-1-(4-fluorophenyl)-1H-pyrazol-4-yl)-7-ethyl-7H-pyrrolo[2,3-d]pyrimidin-2-amine], for which, under setting [1], the IC50 lay in the range of 100 to 1000 nM.

Turning to `CCn1nc(Cl)c2cnc(Nc3cn(C4CCN(S(C)(=O)=O)CC4)nc3Cl)nc21` [Compound 55, 3-chloro-N-(3-chloro-1-(1-(methylsulfonyl)piperidin-4-yl)-1H-pyrazol-4-yl)-1-ethyl-1H-pyrazolo[3,4-d]pyrimidin-6-amine], the IC50 by setting is: under setting [1], less than 10 nM; under setting [2], 4.49 nM.

Source of the values: patent US11370796B2, “Substituted pyrazoles as LRRK2 inhibitors” (OSCOTEC INC., priority 2017, dated 2022).
